Results: patent publication US5922335A, “Uses for ascorbyl-phosphoryl-cholesterol in topical compositions” (Avon Products, Inc., priority 1998, dated 1999)

Assays:
[1] = Superoxide anion scavenging by Electron Spin Resonance (hypoxanthine-xanthine oxidase system); type: biochemical; settings: about 2.5 mg/ml; pH 7.4
Experimental: Superoxide anion scavenging ability was estimated according to the method described in the Liu et al. article noted above. Superoxide anion was generated by a hypoxanthine (hereinafter "HPX")-xanthine oxidase (hereinafter "XOD") system. The following solutions were prepared: 50 μl of 4 mM HPX in 0.1M potassium phosphate buffer; 30 μl of dimethyl sulfoxide, 50 μL of sample; 20 μL OF […] DMPO in 0.1M potassium phosphate buffer; and, 50 μl of XOD (0.4 units/ml) in 0.1M potassium phosphate buffer. The pH of the 0.1M potassium phosphate buffer was 7.4. The solutions of HPX, DMSO, DMPO, XOD and sample were mixed and transferred into a 200 μl-capacity flat cell. Electron Spin Resonance spectra was analyzed.

[2] = test system: Human elastin promoter; assay: Inhibition of elastin gene promoter activity in UVB-irradiated cultured dermal fibroblasts transfected with promoter-reporter molecules; type: cell-based; settings: for % Inhibition of elastin promoter activity at 6 hours / % Inhibition of elastin promoter activity at 12 hours: 100 μ Solution
Experimental: An art recognized method for evaluating the molecular events associated with increased elastin production was performed by measuring the activity of the elastin gene promoter, which is responsible for the activation of elastin gene transcription. (Bernstein, E. et al. 1995 Jour. Invest. Dermatol. 105:269-273).
Human elastin promoter molecules were linked to reporter molecules. The promoter-reporter linked molecules were then transfected into cultured dermal fibroblasts. Previous studies indicate that exposure of cultured fibroblasts to UVB radiation results in upregulation of elastin promoter activity. However, it is believed that UVA radiation may have an indirect effect on solar-induced elastosis.
Solutions of 1 μM to 100 μM of each 3'-(L-ascorbyl-2-o-phosphoryl)-cholesterol and ascorbic acid were produced. These solutions were then supplied to cultured fibroblasts. The control consisted of cultured fibroblasts in media containing neither 3'-(L-ascorbyl-2-o-phosphoryl)-cholesterol nor ascorbic acid.
The cultured fibroblasts were irradiated with single, dose of UVB radiation (5.5 mJ/cm^2) using an FS-40 light source. The spectrum of effectiveness of the FS-40 light source is estimated at 80 to 90% attributable to UVB. It is believed that 10 to 20% of the effectiveness of the FS-40 light source is attributable to […]. The activity attributable to UVA is believed to be negligible.

[3] = test system: human skin fibroblasts; assay: Collagen biosynthesis by cultured human skin fibroblasts ([3H]-Proline Incorporation Assay); type: cell-based; settings: 48 hours; for collagen biosynthesis, Dpm × 10^-3 / mg protein: control 1.55; for collagen biosynthesis, Dpm × 10^-5 / mg DNA: control 14.43
Experimental: An art-recognized [^3 H]-Proline Incorporation Assay was performed with differne does of 3'-(L-ascorbyl-2-o-phosphoryl)-cholesterol. Juva, Anal. Biocheml, Vol, 15, PAGES 77-83 (1966); Booth, Biochem. Biophys. Acta, Vol. 675, pages 117-122 (1981).
After the first 24 hours [^3 H]-labeled proline was added to the culture. Following the second 24 hour period, the cells are harvested and prepared for the collagen biosynthesis assay.
Protease inhibitors are added to prevent degradation of collagen and other proteins. The cell layer is scraped into a solution containing 0.4 M NaCl and 0.01 M Tris (pH 7.5). Extracts are sonicated to disrup cell membranes. Saparate volumes of the cell-containing solution (1 ml each) are dialyzed overnight against several changes of deionized water. The retentate is removed from dialysis and hydrolyzed in 6 N hydrochloric acid at 120 degrees C. overnight. The assay is performed using an oxidation process with 2 M chloramine-T. Samples are analyzed for radioactive counts, with represent the amount of newly synthesized [^3 H]-labeled proline - - - an index for new collagen synthesis.

[4] = Hydroxyl radical scavenging activity by Electron Spin Resonance (DMPO, H2O2/FeSO4); type: biochemical; settings: for Relative Peak Height (RPH): control 100.0; for Peak Height: pH 7.4
Experimental: Hydroxy radical scavenging activity was measured according to an art accepted method. (See Liu et al. Antioxidant Action of Guilingji in the Brain of Rats with FeCl3-induced Epilepsy, Free Radical Biol. & Med., (9:451-545, 1990.) Sample solutions of 3'-(L-ascorbyl-2-o-phosphoryl)-cholesterol of varying concentrations were prepared by dissolving 3'-(L-ascorbyl-2-o-phosphoryl)-cholesterol in 0.1M potassium phosphate buffer (pH=7.4). The following solutions were also prepared: 0.18M 5,5-dimethyl-1-pyrooline-N-oxide (hereinafter "DMPO") in 0.1M potassium phosphate buffer; 2 mM hydrogen peroxide (hereinafter "H2 O2 ") in 0.1M potassium phosphate buffer; and 0. 2 mM iron(II) sulfate (hereinafter "FeSO4 ") in distilled water. Fifty (50) […] of each of the aforedescribed solutions and […] of a sample solution were mixed for thirty (30) seconds and then placed in a flat cell. The Electron Spin Resonance was then measured using Free Radical Monitor JES-FR30, manufactured by JEOL, Tokyo, Japan, (hereinafter "FRM"). The FRM normalized all spectra for calculation by using an internal standard of manganese dioxide (hereinafter "MnO2 "). All peak heights were compared to the constant MnO2 signal generated. Each sample peak height was then divided by the MnO2 peak height to provide a relative peak height (hereinafter "RPH").

[5] = test system: cultured human keratinocytes; assay: Triglyceride biosynthesis in cultured normal human keratinocytes (3H-acetate incorporation); type: cell-based; settings: 10 mM; 18.5 hours, then 3 hours with 3H-acetate; FIG. 1
Experimental: Normal human keratinocytes (hereinafter "NHK") were cultured and then divided into three groups. Each of the three groups were grown in various media for 18.5 hours, the various media being as follows:
1 mM "cold" sodium acetate
10 mM Cholesterylmonophosphate (CMP)
10 mM 3'-(L-ascorbyl-2-o-phosphoryl)-cholesterol
At the conclusion of 18.5 hours, 3H-acetate sodium salt (product number NEN#003H, 6.08 ci/mMole) was added to each group at 3 uCi/ml. The three groups were incubated at 37° C. for an additional 3 hours.
At the conclusion of the incubation period, each group was washed three times with iced PBS. The cells were then collected, sonicated and aliquated for lipid extraction using Bligh/Dyer method and for protein quantification.
The lipid extracts were subfracationated by Thin Layer Chromatography. Proteins were quantitated by Bradford assay.
Triglyceride biosythesis in cultured human keratinocytes is measured as a function of incorporation of 3-H acetate. The incorporation of 3-H acetate is expressed as counts per minute per milligram of 3-H acetate (cpm/mg 3H acetate). The results are illustrated in FIG. 1.

Compound: CC(C)CCC[C@@H](C)[C@H]1CC[C@H]2[C@@H]3CC=C4C[C@@H](OP(=O)(O)OC5=C(O)[C@@H]([C@@H](O)CO)OC5=O)CC[C@]4(C)[C@H]3CC[C@]12C [3'-(L-ascorbyl-2-o-phosphoryl)-cholesterol]
- inhibition of the formation of the superoxide [1]: 50%
- effect on elastin promoter activity in cultured fibroblasts (in words) ([2]; 1 μM to 100 μM, UVB 5.5 mJ/cm^2): decreased elastin promoter activity in cultured fibroblasts in a dose dependent manner
- degree of elastin promoter inhibition compared with ascorbic acid (in words) ([2]; 1 μM to 100 μM, compared to ascorbic acid): exhibits a far superior degree of elastin promoter inhibition
- % Inhibition of elastin promoter activity at 6 hours ([2]; UVB 5.5 mJ/cm^2): 43%
- % Inhibition of elastin promoter activity at 12 hours ([2]; UVB 5.5 mJ/cm^2): 34%
- duration of elastin promoter inhibition compared with ascorbic acid (in words) ([2]; compared to ascorbic acid): inhibits elastin promoter activity for a significantly longer period of time than ascorbic acid
- dose dependence of stimulation in human skin fibroblasts (in words) ([3]; 11.3 to 45 μg/ml): increased production of new human skin fibroblasts in a dose dependent manner
- Stimulation - fold Increase of collagen biosynthesis ([3]; 11.3 μl/ml): 2.9 fold
- collagen biosynthesis, Dpm × 10^-3 / mg protein ([3]; 11.3 μl/ml): 5.17 Dpm × 10^-3 / mg protein
- collagen biosynthesis, Dpm × 10^-5 / mg DNA ([3]; 11.3 μl/ml): 42.07 Dpm × 10^-5 / mg DNA
- Stimulation - fold Increase of collagen biosynthesis ([3]; 22.5 μl/ml): 3.3 fold
- collagen biosynthesis, Dpm × 10^-3 / mg protein ([3]; 22.5 μl/ml): 5.02 Dpm × 10^-3 / mg protein
- collagen biosynthesis, Dpm × 10^-5 / mg DNA ([3]; 22.5 μl/ml): 48.31 Dpm × 10^-5 / mg DNA
- Stimulation - fold Increase of collagen biosynthesis ([3]; 45.0 μl/ml): 6.4 fold
- collagen biosynthesis, Dpm × 10^-3 / mg protein ([3]; 45.0 μl/ml): 11.07 Dpm × 10^-3 / mg protein
- collagen biosynthesis, Dpm × 10^-5 / mg DNA ([3]; 45.0 μl/ml): 92.25 Dpm × 10^-5 / mg DNA
- hydroxyl radical scavenging (in words) [4]: effective scavenger of hydroxyl radicals
- Relative Peak Height (RPH) ([4]; 0.0391 mg/ml): 100.0
- Peak Height ([4]; 0.0391 mg/ml): 1.60
- Relative Peak Height (RPH) ([4]; 0.0782 mg/ml): 85.0
- Peak Height ([4]; 0.0782 mg/ml): 1.36
- Relative Peak Height (RPH) ([4]; 0.1563 mg/ml): 78.1
- Peak Height ([4]; 0.1563 mg/ml): 1.25
- Relative Peak Height (RPH) ([4]; 0.3125 mg/ml): 57.5
- Peak Height ([4]; 0.3125 mg/ml): 0.92
- Relative Peak Height (RPH) ([4]; 0.6250 mg/ml): 30.6
- Peak Height ([4]; 0.6250 mg/ml): 0.49
- Relative Peak Height (RPH) ([4]; 1.2500 mg/ml): 9.4
- Peak Height ([4]; 1.2500 mg/ml): 0.15
- Relative Peak Height (RPH) ([4]; 2.5000 mg/ml): 5.6
- Peak Height ([4]; 2.5000 mg/ml): 0.09
- triglyceride synthesis in cultured human keratinocytes (in words) [5]: significantly increases triglyceride synthesis in cultured human keratinocytes

Compound: O=C1O[C@H]([C@@H](O)CO)C(O)=C1O [Ascorbic Acid, ascorbic acid, reference compound]
- % Inhibition of elastin promoter activity at 6 hours ([2]; UVB 5.5 mJ/cm^2): 23%
- % Inhibition of elastin promoter activity at 12 hours ([2]; UVB 5.5 mJ/cm^2): 0%
